Laboratory results published in PMC12133982, “Predominant T-cell epitopes of SARS-CoV-2 restricted by multiple prevalent HLA-B and HLA-C allotypes in Northeast Asia” (Frontiers in Immunology, 2025).
pIC50: −log10 of the molar value. Read-outs that look alike come from different tables or passages of the source. Peptide text beside a SMILES is read from it.

How the values were obtained:
HLA-C0702 = HLA-C0702 (Homo sapiens, UniProt P10321); assay: Competitive peptide binding assay, CIR-C0702
HLA-C0302 = HLA-C0302 (Homo sapiens, UniProt P10321, A176E/A330V/A97T/C25G/C350S/D114A/D33Y/E197K/L127V/L171W/L218V/M285V/M309V/M331V/P208H/Q277E/Q291P/R243W/R45H/S123Y/S297R/S48A/T118I/T187L/T329A/T363A/V319A); assay: Competitive peptide binding assay, CIR-C0302; conditions: HMy2.CIR-C0302 cells, reference Cy5-[…], class from inhibition at 5 and 15 μM, flow cytometry MFI; read-out: Binding affinity with HLA-C0302
Protocol: (§1) Then, competitive peptide binding assays were performed.

HLA-C0602 = HLA-C0602 (Homo sapiens, UniProt P10321, A176E/A330V/C350S/L171W/L180W/L218V/M285V/M309V/M331V/N104K/P208H/Q277E/Q291P/R121W/S101N/S123Y/S297R/T329A/T363A/V319A/V328M); assay: Competitive peptide binding assay, CIR-C0602
HLA-C0304 = HLA-C0304 (Homo sapiens, UniProt P10321, A176E/A330V/A97T/C25G/C350S/D114A/D33Y/E197K/L119I/L127V/L171W/L218V/M285V/M309V/M331V/P208H/Q277E/Q291P/R243W/R45H/S123Y/S140Y/S297R/S48A/T118I/T187L/T329A/T363A/V319A); assay: Competitive peptide binding assay, CIR-C0304; conditions: HMy2.CIR-C0304 cells, reference Cy5-[…], class from inhibition at 5 and 15 μM, flow cytometry MFI; read-out: Binding affinity with HLA-C0304
Protocol: as §1

HLA-C0102 = HLA-C0102 (Homo sapiens, UniProt P10321, A176E/A330V/A35S/A97T/C350S/D114A/D33F/L171W/L180R/L218V/M285V/M309V/M331V/P208H/Q277E/Q291P/R121W/R243W/R30K/S123C/S140Y/S297R/T329A/T363A/V272M/V319A); assay: Competitive peptide binding assay, CIR-C0102; conditions: for inhibition at 15 µM / inhibition at 5 µM: read-out: Inhibition % of Cy5-reference peptide binding
Protocol: as §1

HLA-C1402 = HLA-C1402 (Homo sapiens, UniProt P10321, A176E/A330V/A35S/A97T/C350S/D114A/D33S/L171W/L180R/L218V/M285V/M309V/M331V/P208H/Q277E/Q291P/R121W/R243W/S123F/S297R/S48A/T329A/T363A/V319A); assay: Competitive peptide binding assay, CIR-C1402; conditions: HMy2.CIR-C1402 cells, reference Cy5-[…], class from inhibition at 5 and 15 μM, flow cytometry MFI; read-out: Binding affinity with HLA-C1402
Protocol: as §1

HLA-C0401 = HLA-C0401 (Homo sapiens, UniProt P10321, A176E/A330V/A35S/A73E/C25G/C350S/D138N/D33S/E299K/L171W/L180R/L218V/M285V/M309V/M331V/N104K/P208H/Q277E/Q291P/R243W/R38W/S101N/S123F/S140F/S297R/S48A/T329A/T363A/V319A/V327M); assay: Competitive peptide binding assay, CIR-C0401; conditions: HMy2.CIR-C0401 cells, reference Cy5-[…], class from inhibition at 5 and 15 μM, flow cytometry MFI; read-out: Binding affinity with HLA-C0401
Protocol: as §1

HLA-C0303 = HLA-C0303 (Homo sapiens, UniProt P10321, A176E/A330V/A97T/C25G/C350S/D114A/D33Y/E197K/G115R/L119I/L127V/L171W/L218V/M285V/M309V/M331V/P208H/Q277E/Q291P/R243W/R45H/S123Y/S140Y/S297R/S48A/T118I/T187L/T329A/T363A/V319A); assay: Competitive peptide binding assay, CIR-C0303; conditions: HMy2.CIR-C0303 cells, reference Cy5-[…], class from inhibition at 5 and 15 μM, flow cytometry MFI; read-out: Binding affinity with HLA-C0303
Protocol: as §1

HLA-C0801 = HLA-C0801 (Homo sapiens, UniProt P10321, A176T/A330V/A97T/C350S/D114A/D138N/D33Y/E201K/E299G/L171W/L218V/M285V/M309V/M331V/P208H/Q277E/Q291P/R59Q/S123Y/S140F/S297R/S48A/T329A/T363A/V319A/V328M); assay: Competitive peptide binding assay, CIR-C0801; conditions: HMy2.CIR-C0801 cells, reference Cy5-[…], class from inhibition at 5 and 15 μM, flow cytometry MFI; read-out: Binding affinity with HLA-C0801
Protocol: as §1

[1] = HMy2.CIR-C0102 cells, reference Cy5-[…], class from inhibition at 5 and 15 μM, flow cytometry MFI, read-out: Binding affinity with HLA-C0102

Row | Compound | pIC50 (HLA-C0702) | pIC50 (HLA-C0302) | pIC50 (HLA-C0602) | pIC50 (HLA-C0304) | pIC50 (HLA-C0102; [1]) | pIC50 (HLA-C1402) | pIC50 (HLA-C0401) | pIC50 (HLA-C0303) | pIC50 (HLA-C0801) | inhibition at 15 µM (HLA-C0102) [%] | inhibition at 5 µM (HLA-C0102) [%] | pIC50 (HLA-C0102)
1 | CC[C@H](C)[C@H](N)C(=O)N[C@H](C(=O)N[C@@H](CC(N)=O)C(=O)N[C@@H](CO)C(=O)N[C@H](C(=O)N[C@@H](CC(C)C)C(=O)N[C@@H](CC(C)C)C(=O)N[C@@H](Cc1ccccc1)C(=O)N[C@@H](CC(C)C)C(=O)O)C(C)C)C(C)C [Epitope M7] (H-IVNSVLLFL-OH; N-terminus and C-terminus assumed) | < 4.82 | < 4.82 | 4.82 to 5.30 | < 4.82 | > 5.30 | < 4.82 | 4.82 to 5.30 |  |  |  |  | 
2 | CC(C)C[C@H](NC(=O)[C@@H](NC(=O)[C@@H](NC(=O)CNC(=O)[C@H](CCC(N)=O)NC(=O)[C@@H]1CCCN1C(=O)[C@H](CC(C)C)NC(=O)[C@H](CCC(N)=O)NC(=O)[C@@H](N)CC(C)C)[C@@H](C)O)[C@@H](C)O)C(=O)O [Epitope M13] (H-LQLPQGTTL-OH; N-terminus and C-terminus assumed) | 4.82 to 5.30 |  |  | > 5.30 |  | < 4.82 | 4.82 to 5.30 |  |  |  |  | 
3 | CSCC[C@H](NC(=O)[C@H](CO)NC(=O)[C@H](CCC(N)=O)NC(=O)[C@H](CCC(N)=O)NC(=O)[C@H](CC(C)C)NC(=O)[C@H](CCC(N)=O)NC(=O)[C@H](CCCCN)NC(=O)[C@H](CO)NC(=O)[C@@H](N)Cc1ccccc1)C(=O)O [Epitope M14] (H-FSKQLQQSM-OH; N-terminus and C-terminus assumed) | 4.82 to 5.30 | > 5.30 |  | 4.82 to 5.30 | < 4.82 |  |  | > 5.30 | < 4.82 |  |  | 
4 | CC[C@H](C)[C@H](NC(=O)[C@@H](NC(=O)[C@H](CC(N)=O)NC(=O)[C@H](CCCNC(=N)N)NC(=O)[C@H](CCCCN)NC(=O)[C@@H](NC(=O)[C@H](Cc1ccc(O)cc1)NC(=O)[C@H](C)NC(=O)[C@@H](N)Cc1ccccc1)[C@@H](C)O)C(C)C)C(=O)O [Epitope M23] (H-FAYTKRNVI-OH; N-terminus and C-terminus assumed) |  |  |  |  | 4.82 to 5.30 |  | < 4.82 | > 5.30 | < 4.82 | 78.9 |  | 
5 | CC(C)C[C@H](NC(=O)[C@H](CC(C)C)NC(=O)[C@H](Cc1ccccc1)NC(=O)[C@@H](NC(=O)[C@H](CCCNC(=N)N)NC(=O)[C@@H]1CCCN1C(=O)[C@H](CCC(N)=O)NC(=O)[C@H](CC(C)C)NC(=O)[C@@H](N)Cc1ccc(O)cc1)[C@@H](C)O)C(=O)O [Epitope M35] (H-YLQPRTFLL-OH; N-terminus and C-terminus assumed) | > 5.30 | < 4.82 |  | < 4.82 | < 4.82 | 4.82 to 5.30 |  |  |  |  |  | 
6 | CC[C@H](C)[C@H](N)C(=O)N[C@@H](C)C(=O)N[C@@H](CC(N)=O)C(=O)N[C@@H](CCC(N)=O)C(=O)N[C@@H](Cc1ccccc1)C(=O)N[C@@H](CC(N)=O)C(=O)N[C@@H](CO)C(=O)N[C@@H](C)C(=O)N[C@H](C(=O)O)[C@@H](C)CC [Epitope M37] (H-IANQFNSAI-OH; N-terminus and C-terminus assumed) |  |  | < 4.82 |  | > 5.30 |  | < 4.82 | > 5.30 | < 4.82 | 86.1 | 68.9 | 
7 | CSCC[C@H](NC(=O)[C@H](C)NC(=O)[C@@H]1CCCN1C(=O)[C@H](CC(=O)O)NC(=O)[C@H](C)NC(=O)[C@H](C)NC(=O)[C@H](Cc1ccc(O)cc1)NC(=O)[C@@H](NC(=O)[C@@H](N)CC(C)C)C(C)C)C(=O)O [Epitope M58] (H-LVYAADPAM-OH; N-terminus and C-terminus assumed) | < 4.82 | > 5.30 |  |  | < 4.82 |  | < 4.82 | 4.82 to 5.30 | < 4.82 |  |  | 
8 | CSCC[C@H](NC(=O)[C@H](C)NC(=O)[C@@H](N)Cc1ccccc1)C(=O)N[C@@H](CCC(N)=O)C(=O)N[C@@H](CCSC)C(=O)N[C@@H](C)C(=O)N[C@@H](Cc1ccc(O)cc1)C(=O)N[C@@H](CCCNC(=N)N)C(=O)N[C@@H](Cc1ccccc1)C(=O)O [Epitope M63] | < 4.82 | > 5.30 | < 4.82 |  | < 4.82 |  | < 4.82 | 4.82 to 5.30 | < 4.82 |  |  | 
9 | CC(C)[C@H](NC(=O)CNC(=O)[C@H](Cc1c[nH]cn1)NC(=O)[C@@H]1CCCN1C(=O)[C@H](C)NC(=O)[C@H](CO)NC(=O)[C@@H](N)CCC(N)=O)C(=O)N[C@H](C(=O)N[C@@H](Cc1ccccc1)C(=O)O)C(C)C [Epitope M69] (H-QSAPHGVVF-OH; N-terminus and C-terminus assumed) |  |  | < 4.82 |  | < 4.82 | < 4.82 | < 4.82 |  | < 4.82 |  |  | 
10 | CC(C)C[C@H](NC(=O)[C@H](CC(C)C)NC(=O)[C@H](Cc1ccccc1)NC(=O)[C@@H](NC(=O)[C@@H](NC(=O)[C@H](Cc1ccccc1)NC(=O)[C@H](C)NC(=O)[C@H](CC(C)C)NC(=O)[C@@H](N)Cc1ccccc1)C(C)C)C(C)C)C(=O)O [Epitope M76] (H-FLAFVVFLL-OH; N-terminus and C-terminus assumed) | 4.82 to 5.30 | 4.82 to 5.30 |  | > 5.30 |  | < 4.82 |  |  |  |  |  | 
11 | CC(C)[C@H](NC(=O)[C@@H](NC(=O)[C@H](Cc1ccccc1)NC(=O)[C@@H]1CCCN1C(=O)[C@@H](NC(=O)CNC(=O)[C@H](CC(=O)O)NC(=O)[C@@H](NC(=O)[C@@H](N)Cc1ccccc1)C(C)C)C(C)C)C(C)C)C(=O)O [Epitope M96] (H-FVDGVPFVV-OH; N-terminus and C-terminus assumed) | < 4.82 |  |  |  |  | 4.82 to 5.30 |  | < 4.82 | > 5.30 | 20.7 | 3.72 | < 4.82
12 | CC[C@H](C)[C@H](NC(=O)[C@H](Cc1ccccc1)NC(=O)[C@@H](N)Cc1ccc(O)cc1)C(=O)N[C@@H](C)C(=O)N[C@@H](CO)C(=O)N[C@@H](Cc1ccccc1)C(=O)N[C@@H](CCCNC(=N)N)C(=O)N[C@@H](CC(C)C)C(=O)N[C@@H](Cc1ccccc1)C(=O)O [Epitope M107] (H-YFIASFRLF-OH; N-terminus and C-terminus assumed) | < 4.82 |  | < 4.82 |  |  | > 5.30 |  | 4.82 to 5.30 | < 4.82 |  |  | 
